IC50 and melting point data for one compound are collected here from PMC7930575, “Comparison of the Inhibitory Binding Modes Between the Planar Fascaplysin and Its Nonplanar Tetrahydro-β-carboline Analogs in CDK4” (Frontiers in Chemistry, 2021).

For one data set, the target named is T1, CDK4/CycD3 (Homo sapiens, UniProt P11802).
T1 construct: purchased Cama
As to the kind of experiment: CDK4 kinase inhibition assay (mobility shift assay). Conditions: mean of three independent experiments. It counts as biochemical. The protocol:
In this study, the inhibitory activities of the synthesized compounds against CDK4/CycD3 were also evaluated using mobility shift assay, and fascaplysin was used as the positive control compound. CDK4/CycD3 was from Cama, kinase substrate peptide was from GL, and fascaplysin was from Selleckchem. First, the kinase base buffer should be prepared (50.0 mmol/L HEPES, pH 7.5, 5 mM MgCl2, 1 mmol DTT, 0.0015% Brij-35). Second, 50 μg CDK4 kinase was added to the kinase base buffer to prepare the kinase solution. The kinase base buffer was used to prepare ATP and substrate peptide solutions, and the obtained solutions were mixed. Third, the synthesized compounds as well as the fascaplysin were diluted with DMSO to the desired concentrations. Fourth, the reaction mixture was incubated at 30°C for 40 min, and 25 μl stop buffer was added to stop the reaction. Finally, conversion was read by Caliper, and GraphPad Prism 5.0 was used to calculate the IC50 values of the compounds against enzyme bioactivities (Table 2).

Another data set relates to A549. In words: MTT cytotoxicity assay, A549 cells, 48 h. Format: cell-based. Conditions: Homo sapiens, A549; MTT assay, 48 h, three independent experiments; read-out: Cytotoxicity (IC50, μM) A549. The protocol:
(§1) The cytotoxicity of the target compounds was evaluated via MTT assay; A549, HeLa, HepG2, and WI-38 were selected for the experiment; and the selected cell lines were purchased from Lanzhou Weihuan Biotechnology Development Co., Ltd. All cell lines were maintained in RPMI-1640 medium supplemented with 10% fetal calf serum under the environment of 5% CO2 concentration and 37°C. The incubated tumor cells were seeded in the prepared 96-well plates, respectively, to make them attach for 12 h. Afterward, the cells were processed with the synthesized compounds with different concentrations as well as fascaplysin as the reference group for 48 h. After 48 h, 10 μl of MTT solution (5 mg/ml in PBS) was added into each well and incubated for 4 h. Then, the medium was removed and 100 μl DMSO was added to dissolve the blue-colored formazan. The absorbance was detected at 570 nm by microplate reader to calculate the inhibition rate (%) and the IC50 was defined using GraphPad Prism Software (version 5.02) (shown in Table 1).
On the technique in general: Tetrazolium assays rely on reduction of a dye to a coloured formazan, in cell work by metabolically active cells.

The nature of data set [1]: MTT cytotoxicity assay, normal cells WI-38, 48 h. Format: cell-based. Conditions: human, WI-38 cells (normal cell line); normal cell line, MTT assay, 48 h, three independent experiments; read-out: Cytotoxicity (IC50, μM) WI-38. The protocol:
as §1

The next data set deals with HepG2. In words: MTT cytotoxicity assay, HepG2 cells, 48 h. Format: cell-based. The settings on record: Homo sapiens, HepG2; MTT assay, 48 h, three independent experiments; read-out: Cytotoxicity (IC50, μM) HepG2. How it is done: as §1
Another data set concerns HeLa. As to the kind of experiment: MTT cytotoxicity assay, HeLa cells, 48 h. Format: cell-based. Conditions: Homo sapiens, MTT assay, three independent experiments, read-out: Cytotoxicity (IC50, μM) HeLa. How it is done:
as §1

T1 sequence (P11802 whole entry): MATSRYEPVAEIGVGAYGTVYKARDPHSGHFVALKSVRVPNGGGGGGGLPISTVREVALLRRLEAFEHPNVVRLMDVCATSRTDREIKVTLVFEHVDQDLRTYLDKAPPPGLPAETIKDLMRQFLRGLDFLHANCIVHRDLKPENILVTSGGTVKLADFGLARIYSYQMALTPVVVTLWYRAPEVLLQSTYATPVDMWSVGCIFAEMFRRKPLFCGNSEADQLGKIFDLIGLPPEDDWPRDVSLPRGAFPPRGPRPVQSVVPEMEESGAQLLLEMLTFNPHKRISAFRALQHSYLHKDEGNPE
T1 sequence (P30281 whole entry partner): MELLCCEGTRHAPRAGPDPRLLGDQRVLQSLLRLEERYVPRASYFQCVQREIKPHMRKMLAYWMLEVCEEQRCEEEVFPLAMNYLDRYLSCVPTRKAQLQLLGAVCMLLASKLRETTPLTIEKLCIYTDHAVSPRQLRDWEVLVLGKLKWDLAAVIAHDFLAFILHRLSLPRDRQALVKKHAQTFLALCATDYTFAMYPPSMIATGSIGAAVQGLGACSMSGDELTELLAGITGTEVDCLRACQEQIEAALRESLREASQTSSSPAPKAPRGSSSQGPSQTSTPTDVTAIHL

As to `CCOC(=O)C1c2[nH]c3ccccc3c2CCN1C(=O)c1ccc2c(c1)OCO2` (stereo not drawn) [Compound 7i, Ethyl-2-(benzo [d] [1,3]dioxole-5-carbonyl)-2,3,4,9-tetrahydro-1H-pyrido [3,4-b] indole-1-carboxylate], the melting point is 202.5 to 204.6 °C. In addition, the IC50 at CDK4/CycD3 stood at 9.38 ± 1.79 µM. Further, the IC50 in the data set with A549 was found to be 20 ± 5.57 µM. For the same compound, the IC50 at 48 h in data set [1] was found to be 256 ± 56 µM. Besides, the IC50 in the data set with HepG2 stood at 23.2 ± 9.17 µM. In addition, the IC50 in the data set with HeLa was determined as 6.18 ± 2.78 µM.

What is called IC50 is the point on the concentration scale where inhibition reaches its midpoint. By melting point is commonly meant the temperature of the solid-liquid transition.
